Earlier results on 3 molecules are cited in PubChem BioAssay AID1259409 (Chemical Carcinogenesis Research Information System (CCRIS), 2018).

The subject of the series is rodent chemically induced tumor inhibition, incidence and multiplicity. Put plainly: CCRIS tumor inhibitor studies.

Each structure is given as a SMILES string.

On to `C[S+](CC[C@H](N)C(=O)[O-])C[C@H]1O[C@@H](n2cnc3c(N)ncnc32)[C@H](O)[C@@H]1O` (stereo partly specified), for which the “tumour outcome (control, treated, inhibition, significance)” value reads like this: (Carcinogen: 1,2-DIMETHYLHYDRAZINE, 540-73-8, Dose [Inhibitor]: 0, 96 UMOL/KG 4/D FOR 32 WK BEGINNING 1 WK POST CARCINOGEN DOSE (STUDY DURATION: 33 WK), Route [Inhibitor]: INTRAMUSCULAR, Species: RAT, Strain/Sex: F344/MALE, Target Tissue: Type of Lesion: LIVER: HEPATOCELLULAR CARCINOMA, Dose [Carcinogen]: 100 MG/KG ONCE 18 HR AFTER RATS WERE SUBJECTED TO TWO-THIRDS HEPATECTOMY, Promoter: OROTIC ACID, 65-86-1) 6/16 (38%), 1/24 (4%), 89%, not calculated; (Carcinogen: DIETHYLNITROSAMINE, 55-18-5, N-ACETYLAMINOFLUORENE, 53-96-3, Carcinogen: DIETHYLNITROSAMINE, 55-18-5, N-ACETYLAMINOFLUORENE, 53-96-3, Dose [Inhibitor]: 0, 64 UMOL/KG 6/D FOR 24 WK BEGINNING POST CARCINOGEN TREATMENT (STUDY DURATION: 28 MO), Route [Inhibitor]: INTRAMUSCULAR, Species: RAT, Strain/Sex: WISTAR/MALE, Target Tissue: Type of Lesion: LIVER: CARCINOMA, Dose [Carcinogen]: 150 MG/KG DEN ONCE THEN 2 WK LATER 0.03% AAF IN DIET FOR 2 WK WITH A PARTIAL HEPATECTOMY PERFORMED MIDWAY THROUGH CARCIN, Promoter: PHENOBARBITAL, 50-06-6) 10/10 (100%), 3/11 (27%), 73%, p<0.025.
Turning to `Cc1c(C)c2c(c(C)c1O)CCC(C)(CCCC(C)CCCC(C)CCCC(C)C)O2` (stereo unspecified), the “tumour outcome (control, treated, inhibition, significance)” value is 10/17 (59%), 6/16 (38%), 36%, not calculated (Carcinogen: N-NITROSOMETHYLBENZYLAMINE, 937-40-6, Dose [Inhibitor]: 30, 172 MG/KG IN DIET BEGINNING POST CARCINOGEN TREATMENT AND CONTINUING FOR 22 WK (STUDY DURATION: 25 WK), Route [Inhibitor]: ORAL, Species: MOUSE, Strain/Sex: C57BL/FEMALE, Target Tissue: Type of Lesion: ESOPHAGUS: TUMOR, Dose [Carcinogen]: 0.2 MG/KG IN CORN OIL 3/WK FOR 3 WK, Promoter: ETHANOL, 64-17-5); 6/15 (40%), 3/15 (20%), 50%, not calculated (Carcinogen: N-NITROSOMETHYLBENZYLAMINE, 937-40-6, Dose [Inhibitor]: 30, 172 MG/KG IN DIET BEGINNING POST CARCINOGEN TREATMENT AND CONTINUING FOR 22 WK (STUDY DURATION: 25 WK), Route [Inhibitor]: ORAL, Species: MOUSE, Strain/Sex: C57BL/FEMALE, Target Tissue: Type of Lesion: ESOPHAGUS: TUMOR, Dose [Carcinogen]: 0.2 MG/KG IN CORN OIL 3/WK FOR 3 WK, Promoter: NONE USED); 81%, 42%, 48%, p=0.0065 (Carcinogen: UVB IRRADIATION, Dose [Inhibitor]: 0, 25 MG IN 200 µL ACETONE 3/WK FOR DURATION OF STUDY BEGINNING 3 WK PRIOR TO IRRADIATION (STUDY DURATION: 33 WK), Route [Inhibitor]: DERMAL, Species: MOUSE, Strain/Sex: C3H/HEN/FEMALE, Target Tissue: Type of Lesion: SKIN: TUMOR, Dose [Carcinogen]: 6 J/M2/SEC 30 MIN/D, 5 D/WK FOR 27 WK, Promoter: NONE USED).
For the molecule `CC(C)=CCc1cc(/C=C/C(=O)O)cc(CC=C(C)C)c1O`, the “tumour outcome (control, treated, inhibition, significance)” value (Carcinogen: FERRIC NITRILOTRIACETATE, 16448-54-7, Dose [Inhibitor]: 0, 350 UG/MOUSE IN OLIVE OIL TWICE/D FOR 5 D/WK FOR 1 YR BEGINNING POST CARCINOGEN TREATMENT (STUDY DURATION: 1 YR AND 8, Route [Inhibitor]: ORAL, Species: MOUSE, Strain/Sex: DDY/MALE, Target Tissue: Type of Lesion: KIDNEY: CARCINOMA, Dose [Carcinogen]: 43.6 MG/KG BW/D TWICE/WK FOR FIRST 8 WK, Promoter: NONE) is recorded as 1/9 (11%), 0/6 (0%), 100%, not significant.
